From patent US10150763B2, “Histone deacetylase inhibitors and their use in therapy” (Karus Therapeutics Limited, priority 2012, dated 2018)
Read-outs that look alike come from different tables or passages of the source.

Legend:
HDAC6 = HDAC6 (Homo sapiens (Human), UniProt Q9UBN7); assay: HDAC inhibitory activity assay (as described in WO2008/062201), HDAC6; assay type: biochemical
HDAC1 = HDAC1 (Homo sapiens (Human), UniProt Q13547); assay: HDAC inhibitory activity assay (as described in WO2008/062201), HDAC1; assay type: biochemical
PC-3 = assay: In vitro cancer cell growth inhibition, PC-3; assay type: cell-based; conditions: Homo sapiens; PC-3 cancer cell growth inhibition
Source text: (§1) In Vitro Cancer Cell Growth Inhibition Data for Compound A

A549 = assay: In vitro cancer cell growth inhibition, A549; assay type: cell-based; conditions: Homo sapiens
Source text: as §1

[1] = Comparative mouse pharmacokinetics (oral bioavailability); conditions: in vivo, read-out: Oral bioavailability, F %
[2] = class symbol, read-out: IC50, HDAC6
[3] = class symbol, read-out: IC50, HDAC1

HDAC1, sequence (Q13547 whole entry, species assumed): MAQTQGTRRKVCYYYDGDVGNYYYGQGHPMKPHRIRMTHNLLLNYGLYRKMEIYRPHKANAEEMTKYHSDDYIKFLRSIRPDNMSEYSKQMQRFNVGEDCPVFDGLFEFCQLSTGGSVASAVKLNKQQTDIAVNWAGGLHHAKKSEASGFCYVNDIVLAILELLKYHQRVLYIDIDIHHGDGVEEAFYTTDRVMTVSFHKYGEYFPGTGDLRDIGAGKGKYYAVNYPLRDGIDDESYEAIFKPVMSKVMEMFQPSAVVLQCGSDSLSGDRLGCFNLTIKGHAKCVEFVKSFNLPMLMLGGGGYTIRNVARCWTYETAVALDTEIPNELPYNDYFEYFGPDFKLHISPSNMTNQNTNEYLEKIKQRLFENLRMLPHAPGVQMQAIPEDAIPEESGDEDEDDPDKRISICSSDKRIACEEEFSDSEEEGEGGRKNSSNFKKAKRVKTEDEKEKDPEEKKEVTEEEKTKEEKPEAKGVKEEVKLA
HDAC6, sequence (Q9UBN7 whole entry, species assumed): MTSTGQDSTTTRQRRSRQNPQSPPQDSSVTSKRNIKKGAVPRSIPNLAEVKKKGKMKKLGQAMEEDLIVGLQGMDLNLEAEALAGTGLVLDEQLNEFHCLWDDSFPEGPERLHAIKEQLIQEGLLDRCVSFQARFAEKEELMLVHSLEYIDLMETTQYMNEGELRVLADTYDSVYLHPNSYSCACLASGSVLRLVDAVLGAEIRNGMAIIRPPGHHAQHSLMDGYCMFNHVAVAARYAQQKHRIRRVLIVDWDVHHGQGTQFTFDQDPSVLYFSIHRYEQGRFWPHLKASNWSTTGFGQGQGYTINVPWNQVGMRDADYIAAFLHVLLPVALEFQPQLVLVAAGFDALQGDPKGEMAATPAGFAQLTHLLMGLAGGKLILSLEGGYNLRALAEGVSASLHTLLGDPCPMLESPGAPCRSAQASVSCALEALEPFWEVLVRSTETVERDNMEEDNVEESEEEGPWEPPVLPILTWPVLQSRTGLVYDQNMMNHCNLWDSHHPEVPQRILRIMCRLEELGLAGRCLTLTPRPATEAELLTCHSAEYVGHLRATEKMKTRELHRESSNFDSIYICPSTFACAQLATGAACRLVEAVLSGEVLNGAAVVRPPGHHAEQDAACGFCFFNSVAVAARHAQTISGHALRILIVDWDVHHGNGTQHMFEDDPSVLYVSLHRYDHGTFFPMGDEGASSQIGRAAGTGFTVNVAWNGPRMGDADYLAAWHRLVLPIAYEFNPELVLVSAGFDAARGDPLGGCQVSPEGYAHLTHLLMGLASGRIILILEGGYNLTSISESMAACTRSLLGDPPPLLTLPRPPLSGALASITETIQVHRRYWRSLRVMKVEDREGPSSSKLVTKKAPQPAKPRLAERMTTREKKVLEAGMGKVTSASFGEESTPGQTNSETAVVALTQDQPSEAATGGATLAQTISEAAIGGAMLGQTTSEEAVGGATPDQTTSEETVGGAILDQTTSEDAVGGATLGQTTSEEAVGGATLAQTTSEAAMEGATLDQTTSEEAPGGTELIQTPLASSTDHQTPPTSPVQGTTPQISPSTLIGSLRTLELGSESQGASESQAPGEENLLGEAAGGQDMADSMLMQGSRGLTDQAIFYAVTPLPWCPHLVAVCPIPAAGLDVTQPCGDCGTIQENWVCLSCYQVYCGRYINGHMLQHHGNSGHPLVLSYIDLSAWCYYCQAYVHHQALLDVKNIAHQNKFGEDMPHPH

| SMILES | IC50 (HDAC6; [2]) [µM] | IC50 (HDAC1; [3]) [µM] | also measured |
| --- | --- | --- | --- |
| Cc1nsc(N(CCCCCCC(=O)NO)c2cc(-c3ccc(F)cc3)ccn2)n1 [Example EE, 7-((4-(4-Fluorophenyl)pyridin-2-yl)(3-methyl-1,2,4-thiadiazol-5-yl)amino)-N-hydroxyheptanamide] | < 0.5 | 1 to 10 |  |
| Cc1nnc(N(CCCCCCC(=O)NO)c2ccccn2)s1 [Example I, N-Hydroxy-7-((5-methyl-1,3,4-thiadiazol-2-yl)(pyridin-2-yl)amino)heptanamide] |  | 0.5 to 1 |  |
| Cc1noc(N(CCCCCCC(=O)NO)c2ccc(F)cn2)n1 [Example Q, 7-((5-Fluoropyridin-2-yl)(3-methyl-1,2,4-oxadiazol-5-yl)amino)-N-hydroxyheptanamide] | < 0.5 | > 10 |  |
| Cn1ccc(N(CCCCCCCC(=O)NO)c2cc(-c3ccc(F)cc3)ccn2)n1 [Example Z, 8-((4-(4-Fluorophenyl)pyridin-2-yl)(1-methyl-1H-pyrazol-3-yl)amino)-N-hydroxyoctanamide] | < 0.5 | > 10 |  |
| O=C(CCCCCCN(c1ccccn1)c1nccs1)NO [Example KK, N-Hydroxy-7-(pyridin-2-yl(thiazol-2-yl)amino)heptanamide] |  | 1 to 10 |  |
| Cn1ccc(N(CCCCCCC(=O)NO)c2cc(-c3ccc(F)cc3)ccn2)n1 [Example Y, 7-((4-(4-Fluorophenyl)pyridin-2-yl)(1-methyl-1H-pyrazol-3-yl)amino)-N-hydroxyheptanamide] | < 0.5 | < 0.5 |  |
| Cn1c(N(CCCCCCC(=O)NO)c2ccccn2)nc2ccccc21 [Example M, N-Hydroxy-7-((1-methyl-1H-benzo[d]imidazol-2-yl)(pyridin-2-yl)amino)heptanamide] |  | 1 to 10 |  |
| Cc1nsc(N(CCCCCCCC(=O)NO)c2cc(-c3ccc(F)cc3)ccn2)n1 [Example FF, 8-((4-(4-Fluorophenyl)-pyridin-2-yl)(3-methyl-1,2,4-thiadiazol-5-yl)amino)-N-hydroxyoctanamide] | < 0.5 | 1 to 10 |  |
| O=C(CCCCCCN(c1ccccn1)c1nc(C(F)(F)F)ns1)NO [Example AA] |  | 1 to 10 |  |
| Cc1noc(N(CCCCCCCC(=O)NO)c2ccc(F)cn2)n1 [Example R, 8-((5-Fluoropyridin-2-yl)(3-methyl-1,2,4-oxadiazol-5-yl)amino)-N-hydroxyoctanamide] | < 0.5 | 1 to 10 |  |
| Cc1nsc(N(CCCCCCC(=O)NO)c2ccccn2)n1 [Example A, N-Hydroxy-7-[(3-methyl-1,2,4-thiadiazol-5-yl)(pyridin-2-yl)amino]heptanamide] |  |  | IC50 (PC-3): 2.32 µM; IC50 (HDAC6): < 0.5 µM; IC50 (HDAC6; numeric value, read-out: IC50, HDAC6): 0.00176 µM; IC50 (A549): 1.89 µM; IC50 (HDAC1): < 0.5 µM; IC50 (HDAC1; numeric value, read-out: IC50, HDAC1): 0.227 µM; bioavailability [1]: 19% |
| Cn1c(N(CCCCCCCC(=O)NO)c2ccc(F)cn2)nc2ccccc21 [Example T, 8-((5-Fluoropyridin-2-yl)(1-methyl-1H-benzo[d]imidazol-2-yl)amino)-N-hydroxyoctanamide] | < 0.5 | 1 to 10 |  |
| O=C(CCCCCCCN(c1ccccn1)c1nncs1)NO [Example H, N-Hydroxy-8-(pyridin-2-yl(1,3,4-thiadiazol-2-yl)amino)octanamide] |  | 1 to 10 |  |
| Cc1nsc(N(CCCCCCC(=O)NO)c2cccnc2)n1 [Example B, N-Hydroxy-7-[(3-methyl-1,2,4-thiadiazol-5-yl)(pyridin-3-yl)amino]heptanamide] | < 0.5 | < 0.5 |  |
| Cn1c(N(CCCCCCC(=O)NO)c2ccc(F)cn2)nc2ccccc21 [Example S, 7-((5-Fluoropyridin-2-yl)(1-methyl-1H-benzo[d]imidazol-2-yl)amino)-N-hydroxyheptanamide] | < 0.5 | 0.5 to 1 |  |
| Cc1nsc(N(CCCCCCC(=O)NO)c2ccc(F)cn2)n1 [Example CC, 7-((5-Fluoropyridin-2-yl)(3-methyl-1,2,4-thiadiazol-5-yl)amino)-N-hydroxyheptanamide] | < 0.5 | 0.5 to 1 |  |
| Cc1noc(N(CCCCCCCC(=O)NO)c2ccccn2)n1 [Example D, N-Hydroxy-8-((3-methyl-1,2,4-oxadiazol-5-yl)(pyridin-2-yl)amino)octanamide] |  | 1 to 10 |  |
| O=C(CCCCCCN(c1ccccn1)c1ncns1)NO [Example O, N-Hydroxy-7-(pyridin-2-yl(1,2,4-thiadiazol-5-yl)amino)heptanamide] |  | 0.5 to 1 |  |
| Cn1ccc(N(CCCCCCCC(=O)NO)c2ccc(F)cn2)n1 [Example V, 8-((5-Fluoropyridin-2-yl)(1-methyl-1H-pyrazol-3-yl)amino)-N-hydroxyoctanamide] | < 0.5 | > 10 |  |
| O=C(CCCCCCN(c1ccc(F)cn1)c1nc2ccccc2o1)NO [Example W, 7-(Benzo[d]oxazol-2-yl(5-fluoropyridin-2-yl)amino)-N-hydroxyheptanamide] | < 0.5 | 1 to 10 |  |
| O=C(CCCCCCCN(c1ccc(F)cn1)c1nc2ccccc2o1)NO [Example X, 8-(Benzo[d]oxazol-2-yl(5-fluoropyridin-2-yl)amino)-N-hydroxyoctanamide] | < 0.5 | 1 to 10 |  |
| Cc1nnc(N(CCCCCCCC(=O)NO)c2ccccn2)s1 [Example J, N-Hydroxy-8-((5-methyl-1,3,4-thiadiazol-2-yl)(pyridin-2-yl)amino)octanamide] |  | 1 to 10 |  |
| O=C(CCCCCCN(c1ccc(F)cn1)c1nc(C(F)(F)F)ns1)NO [Example GG, 7-((5-Fluoropyridin-2-yl)(3-(trifluoromethyl)1,2,4-thiadiazol-5-yl)amino)-N-hydroxyheptanamide] | < 0.5 | 0.5 to 1 |  |
| Cc1nsc(N(CCCCCCCC(=O)NO)c2ccc(F)cn2)n1 [Example DD, 8-((5-Fluoropyridin-2-yl)(3-methyl-1,2,4-thiadiazol-5-yl)amino)-N-hydroxyoctanamide] | < 0.5 | 1 to 10 |  |
| O=C(CCCCCCCN(c1ccc(F)cn1)c1nc(C(F)(F)F)ns1)NO [Example HH, 8-((5-Fluoropyridin-2-yl)(3-(trifluoromethyl)1,2,4-thiadiazol-5-yl)amino)-N-hydroxyoctanamide] | < 0.5 | 1 to 10 |  |
| O=C(CCCCCCCN(c1ccccn1)c1ncns1)NO [Example P, N-Hydroxy-8-(pyridin-2-yl(1,2,4-thiadiazol-5-yl)amino)octanamide] |  | 1 to 10 |  |
| Cn1ccc(N(CCCCCCC(=O)NO)c2ccc(F)cn2)n1 [Example U, 7-((5-Fluoropyridin-2-yl)(1-methyl-1H-pyrazol-3-yl)amino)-N-hydroxyheptanamide] | < 0.5 | 1 to 10 |  |
| O=C(CCCCCCCN(c1ccccn1)c1nccs1)NO [Example LL, N-Hydroxy-8-(pyridin-2-yl(thiazol-2-yl)amino)octanamide] |  | 1 to 10 |  |
